Source: ChEMBL document CHEMBL3400149, “Discovery of novel spiro 1,3,4-thiadiazolines as potent, orally bioavailable and brain penetrant KSP inhibitors” (Bioorg Med Chem, 2015)

Tests used:
[1] = target: T1, Kinesin-like protein KIF11 (Homo sapiens, UniProt P52732); assay: Inhibition of KSP in human HCT116 cells assessed as phos-histone H3 level by immunofluorescent assay; format: cell-based, HCT-116
T1 sequence (P52732 whole entry): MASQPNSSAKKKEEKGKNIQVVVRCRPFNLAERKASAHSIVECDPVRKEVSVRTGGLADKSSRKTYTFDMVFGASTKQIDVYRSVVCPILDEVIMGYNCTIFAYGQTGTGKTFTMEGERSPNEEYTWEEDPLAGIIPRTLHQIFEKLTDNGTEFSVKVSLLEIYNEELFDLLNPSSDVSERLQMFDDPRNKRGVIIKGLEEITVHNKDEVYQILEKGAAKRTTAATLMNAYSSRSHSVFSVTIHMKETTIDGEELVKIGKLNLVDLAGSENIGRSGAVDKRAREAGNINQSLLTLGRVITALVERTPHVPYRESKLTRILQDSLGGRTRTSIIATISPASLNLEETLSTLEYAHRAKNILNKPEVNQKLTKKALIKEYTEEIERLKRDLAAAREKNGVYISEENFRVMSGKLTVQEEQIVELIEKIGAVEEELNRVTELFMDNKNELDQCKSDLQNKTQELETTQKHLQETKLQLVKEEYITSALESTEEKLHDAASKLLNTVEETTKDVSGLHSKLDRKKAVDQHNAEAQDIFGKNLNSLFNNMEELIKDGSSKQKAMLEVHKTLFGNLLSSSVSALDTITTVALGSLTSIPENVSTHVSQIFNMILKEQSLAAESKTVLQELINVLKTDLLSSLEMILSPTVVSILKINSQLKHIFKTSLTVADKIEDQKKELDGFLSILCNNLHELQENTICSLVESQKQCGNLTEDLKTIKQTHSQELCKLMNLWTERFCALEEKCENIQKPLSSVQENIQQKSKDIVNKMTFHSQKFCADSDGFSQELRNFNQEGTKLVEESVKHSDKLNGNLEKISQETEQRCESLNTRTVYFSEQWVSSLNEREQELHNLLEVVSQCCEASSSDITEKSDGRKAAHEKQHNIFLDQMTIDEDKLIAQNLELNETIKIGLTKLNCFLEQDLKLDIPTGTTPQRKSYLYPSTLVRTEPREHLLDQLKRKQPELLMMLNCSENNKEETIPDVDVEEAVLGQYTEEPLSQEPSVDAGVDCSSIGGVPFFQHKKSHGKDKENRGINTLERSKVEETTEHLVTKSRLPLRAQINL

[2] = Cmax in Sprague-Dawley rat at 5 mg/kg, po; format: ADME, organism-based; parameters: dose 5 mg/kg, route oral; settings: in vivo
[3] = AUC in Sprague-Dawley rat at 5 mg/kg, po; format: ADME, organism-based; parameters: dose 5 mg/kg, route oral; settings: plasma
[4] = AUC in beagle dog at 1 mg/kg, iv; format: ADME, organism-based, Canis lupus familiaris; parameters: dose 1 mg/kg, route intravenous; settings: plasma
[5] = Oral bioavailability in beagle dog at 5 mg/kg; format: ADME, organism-based, Canis lupus familiaris; settings: in vivo
[6] = Clearance in beagle dog at 1 mg/kg, iv; format: ADME, organism-based, Canis lupus familiaris; parameters: dose 1 mg/kg, route intravenous; settings: in vivo
[7] = Cmax in beagle dog at 5 mg/kg, po; format: ADME, organism-based, Canis lupus familiaris; parameters: dose 5 mg/kg, route oral; settings: in vivo
[8] = AUC in Sprague-Dawley rat at 1 mg/kg, iv; format: ADME, organism-based; parameters: dose 1 mg/kg, route intravenous; settings: plasma
[9] = Oral bioavailability in Sprague-Dawley rat at 5 mg/kg; format: ADME, organism-based; settings: in vivo
[10] = AUC in CD1 mouse at 10 mg/kg, po; format: ADME, organism-based; parameters: dose 10 mg/kg, route oral; settings: plasma
[11] = Clearance in CD1 mouse at 5 mg/kg, iv; format: ADME, organism-based; parameters: dose 5 mg/kg, route intravenous; settings: in vivo
[12] = AUC in beagle dog at 5 mg/kg, po; format: ADME, organism-based, Canis lupus familiaris; parameters: dose 5 mg/kg, route oral; settings: plasma
[13] = Clearance in Sprague-Dawley rat at 1 mg/kg, iv; format: ADME, organism-based; parameters: dose 1 mg/kg, route intravenous; settings: in vivo
[14] = AUC in CD1 mouse at 5 mg/kg, iv; format: ADME, organism-based; parameters: dose 5 mg/kg, route intravenous; settings: plasma
[15] = Cmax in CD1 mouse at 10 mg/kg, po; format: ADME, organism-based; parameters: dose 10 mg/kg, route oral; settings: in vivo
[16] = Oral bioavailability in CD1 mouse at 10 mg/kg; format: ADME, organism-based; settings: in vivo
[17] = AUC in Sprague-Dawley rat at 10 mg/kg, po; format: ADME, organism-based; parameters: dose 10 mg/kg, route oral; settings: plasma
[18] = Oral bioavailability in Sprague-Dawley rat at 10 mg/kg; format: ADME, organism-based; settings: in vivo
[19] = Cmax in Sprague-Dawley rat at 10 mg/kg, po; format: ADME, organism-based; parameters: dose 10 mg/kg, route oral; settings: in vivo
[20] = Retention time of the compound; format: physicochemical

With `NCCC(=O)N1N=C(c2cc(F)ccc2F)SC12CCOc1ccccc12` (stereo not given) the EC50 [1] was > 500 nM.
In the case of `CC(=O)N1N=C(c2cc(F)ccc2F)S[C@@]12c1cc(F)cc(F)c1OC[C@H]2CCN`, the EC50 [1] is reported as 5 nM, the Cmax [2] is reported as 180 nM and the AUC [3] is reported as 1.7 µM·h. It also gave an AUC [4] of 1.9 µM·h, a bioavailability [5] of 18% and a clearance [6] of 20 mL/min/kg. It also gave a Cmax [7] of 200 nM, an AUC [8] of 0.8 µM·h and a bioavailability [9] of 44%. For the same molecule, the AUC [10] was 13.4 µM·h, the clearance [11] was 29 mL/min/kg and the AUC [12] was 1.7 µM·h. The clearance [13] was 50 mL/min/kg, the AUC [14] was 6.5 µM·h and the Cmax [15] was 1200 nM. For the same molecule, the bioavailability [16] was 100%.
`CN(C)CCCC(=O)N1N=C(c2cc(F)ccc2F)SC12CCOc1ccccc12` (stereo not given) gave an EC50 [1] of 263 nM.
With `CC(=O)N1N=C(c2cc(F)ccc2F)SC12COc1ccccc12` (stereo not given) the EC50 [1] was 246 nM.
With `CC(=O)N1N=C(c2cc(F)ccc2F)S[C@@]12c1cc(F)ccc1OC[C@H]2CCN` the EC50 [1] was 1 nM, the AUC [17] was 0.15 µM·h and the bioavailability [18] was 8%. For the same molecule, the Cmax [19] was 17 nM, the AUC [8] was 0.37 µM·h and the AUC [10] was 3.3 µM·h. For the same molecule, the clearance [11] was 76 mL/min/kg, the clearance [13] was 109 mL/min/kg and the AUC [14] was 2.6 µM·h. For the same molecule, the Cmax [15] was 770 nM and the bioavailability [16] was 64%.
In the case of `CC(=O)N1N=C(c2cc(F)ccc2F)SC12CCSc1ccccc12` (stereo not given), the EC50 [1] is reported as 3310 nM.
For `CC(C)(C)C(=O)N1N=C(c2cc(F)ccc2F)SC12CCOc1ccccc12` (stereo not given), the EC50 [1] was > 1000 nM.
In the case of `O=C(CO)N1N=C(c2cc(F)ccc2F)SC12CCOc1ccccc12` (stereo not given), the EC50 [1] is reported as 615 nM.
Molecule `CC(=O)N1N=C(c2cc(F)ccc2F)SC12c1ccccc1OCC2CCN` (racemic) has an EC50 [1] of 5 nM.
For `CC(=O)N1N=C(c2cc(F)ccc2F)SC12CCCOc1ccccc12` (stereo not given), the EC50 [1] was > 1000 nM.
In the case of `CC(C)C(=O)N1N=C(c2cc(F)ccc2F)SC12CCOc1ccccc12` (stereo not given), the EC50 [1] is reported as > 500 nM.
Work on `CNCCCC(=O)N1N=C(c2cc(F)ccc2F)SC12CCOc1ccccc12` (stereo not given) yielded an EC50 [1] of 367 nM.
In the case of `CC(=O)N1CCC2(SC(c3cc(F)ccc3F)=NN2C(C)=O)c2ccccc21` (stereo not given), the EC50 [1] is reported as > 1000 nM.
With `CC(=O)N1N=C(c2cc(F)ccc2F)S[C@@]12c1ccccc1OC[C@@H]2CCN` the EC50 [1] was 11 nM and the Retention_time [20] was 5.4 min.
